These results are taken from US11401516B2, “Channel modulators” (AUCKLAND UNISERVICES LIMITED, priority 2014, dated 2022).

Series [1] deals with HUVEC cells. Put plainly: Transfection uptake of FAM-labelled oligonucleotides (FACS). It is filed as cell-based, Human. The settings on record: 200 nM. Here is the method:
HUVEC cells (C-003-5C, Invitrogen, primary Human endothelial cells) were used to test the transfection of chemically modified backbones of the Connexin 43 antisense compounds. Cells were transfected with Oligofectamine® using the manufacturer's recommended protocol for 4 hr and 12 hr in serum-free media. The antisense concentration was 200 nM in buffer. The antisense compounds used had unmodified (O) or fully modified (PTO) backbones, where the modified backbone had all thiophosphoriate linkages between the nucleotides. The unmodified sequence SEQ1-O would have the sequence […] NO: 23). The modified sequence SEQ1-PTO would have the sequence of: [NT] NO: 23), wherein the subscript “s” indicates the thiophosphoriate linkage between the two nucleotides. […] All sequences for the transfection study were labelled with FAM for fluorescence labelling. The transfected cells were analyzed by FACS (fluorescent-activated cell sorting), and confocal microscopy.

Series [2] concerns Connexin 43 RNA. Put plainly: Connexin 43 knockdown by qPCR in HUVEC. It is filed as cell-based, human. As to conditions: for Avg % KD qPCR: HUVEC, phosphorothioate backbone ASN; for Absolute Difference from SEQ1 (relative knockdown): all-thiophosphoriate linkages in the entire backbone; for dose response of Cxn43 knockdown, qPCR: 200-600 nM. Here is the method:
Next, the knockdown efficiency of Connexin 43 in HUVEC cells was measured by qPCR for an oligonucleotide series with the same sequence but with a different number of PTO-modifications on the oligonucleotide backbone. The sequences tested were SEQ1 and SEQ4, with none, 2, or all phosphorthioate linkages in the backbone. For the sequences with two phosphorthioate linkages in the backbone, the phosphorthioate linkages were between the last nucleotide linkages at the terminus of each side of the sequence. The sequences are Gs[…]sT (SEQ ID NO: 23) and As[…]sC (SEQ ID NO: 5) for SEQ1-2PTO and SEQ4-2PTO, respectively. […]
(§1) Cells were grown in 6-well culture plates for 24 hr and reached 50-70% confluence prior to antisense oligonucleotide treatments using the transfection agent Oligofectamine®. Cells were harvested for qPCR and Western blotting analysis between 4 and 24 hr after transfection.
qPCR was performed to determine the efficacy of antisense oligonucleotide in knockdown of the target RNA. Briefly, total RNA was extracted from the cells after transfection. The isolated RNA was DNAse-treated and reverse-transcribed into cDNA. The cDNA subsequently underwent qPCR thermal cycling. The Ct values (the number of cycles required for the fluorescent intensity to cross the set threshold) obtained from the qPCR were converted into relative abundance of RNA. The RNA level of the target was normalised to selected reference genes and compared between antisense oligonucleotide versus vehicle treatments.
(§2) The cell screening experiments were performed using HUVEC cells (human umbilical vein endothelial cells; Invitrogen), with two biological replicates in each experiment. The identifiers of “CODA” are SEQ1, and “LP2” are SEQ4.

The test system of series [3] is Connexin 43. The series can be described thus: Connexin 43 knockdown by Western blot in HUVEC. It is filed as cell-based, human. The settings on record: phosphorothioate backbone ASN. Here is the method:
as §1
Western blotting was also performed to determine the efficacy of antisense oligonucleotide in knockdown of the target protein. Briefly, total proteins were extracted from the cells after transfection and the concentration was determined by performing bicinchoninic acid (BCA) assay. Subsequently, equal amounts of total protein were loaded for gel electrophoresis and blotted onto nitrocellulose membranes, which were then probed with a specific antibody against the target protein. Densitometry was used to quantify the band intensity of the target protein. Knockdown was quantified by comparing antisense oligonucleotide versus vehicle treatments.
as §2
For orientation: Immunoblotting shows a protein as a band on a membrane.

For series [4] the following is noted: cited from earlier work; for incidence of new geographic atrophy: treated monthly, average 23 injections over two years.
Series [5] addresses T1, Connexin43 hemichannel (Homo sapiens, UniProt P17302).
T1 construct: expressed in transfected cells; host or cells: HeLa (connexin-deficient parent), Cx43IRESeGFP, puromycin selection
Put plainly: Whole-cell voltage clamp, Connexin43 transfected HeLa cells. It counts as cell-based. As to conditions: voltage steps; peptide5 100 μM; carbenoxolone and LaCl3 concentration not stated. On the procedure: Whole-cell voltage clamp studies were conducted on connexin deficient HeLa cells, Connexin43 transfected HeLa cells and isolated human cerebral microvascular endothelial cells (hCMVEC).
HeLa cells were seeded at 0.045×10^6 cells/mL on 18 mm rat collagen I coated coverslips 16-24 hours before each experiment. Cx43IRESeGFP HeLa cells were cultured overnight in DMEM supplemented with 10% FCS and 1 μg/mL Puromycin at 37° C. at 95% O2 and 5% CO2. Control Cx-deficient cells were maintained in DMEM supplmented with 10% FCS. Coverslips were transferred to a chamber continuously perfused with modified Krebs-Ringer solution containing (in mM): 140 NaCl, 5.4 KCl, 1 MgCl2, 10 mM Hepes and pH adjusted to 7.4 at room temperature. The internal pipette solution contained (in mM): 130 KCl, 10 sodium aspartate, 0.26 CaCl2, 2 EGTA, 5 tetraethylammonium-Cl, 1 MgCl, 3 MgATP, and 5 Hepes at pH 7.2; and was kept on ice. The solutions are described in Contreras J E, et al., Cell Communication and Adhesion (2003), 10:245-249. To resolve single currents in whole-cell configuration, cells with low capacitance (<10 pF) and high resistance pipettes ([…]) with a seal resistance of (>5 GOhm) were selected for recording and analysis.

The mark [6] stands for this setting: Table 66, 4 hr post-transfection.
The mark [7] stands for this setting: Table 67, 4 hr post-transfection.
Setting [8] is: unmodified sequences (no phosphorthioate linkages).

T1 sequence (P17302 2-382 limits assumed): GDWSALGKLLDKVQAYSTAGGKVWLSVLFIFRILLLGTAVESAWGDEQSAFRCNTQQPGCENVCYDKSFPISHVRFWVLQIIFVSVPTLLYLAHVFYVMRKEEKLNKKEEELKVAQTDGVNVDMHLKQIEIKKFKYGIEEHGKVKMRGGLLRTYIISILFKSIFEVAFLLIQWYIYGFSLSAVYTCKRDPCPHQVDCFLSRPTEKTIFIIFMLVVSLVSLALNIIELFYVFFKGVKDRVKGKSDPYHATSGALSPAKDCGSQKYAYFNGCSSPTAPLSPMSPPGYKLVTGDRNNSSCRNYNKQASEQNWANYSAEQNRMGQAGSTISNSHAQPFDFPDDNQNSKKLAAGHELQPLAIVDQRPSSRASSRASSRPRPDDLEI

Turning to “GTAATTGCGGCAAGAAGAATTGTTTCTGT (DNA, phosphodiester; FAM fluorescent label attached, position not given here) [SEQ1-O]”, in series [1] (setting [6]), the “% transfected, M2” value was 56%; the “% transfected, M3” value is 42%; the “% transfected, M4” value was 2%; the “% transfected, Total” value is reported as 99%. In series [1] (setting [7]), the “% transfected, M2” value was 56%; the “% transfected, M3” value was determined as 40%; the “% transfected, M4” value turned out to be 2%; the “% transfected, Total” value amounted to 98%.

Consider “CCAGGCTGACTCAACCGCTG (chemistry not given here) [SEQ4/37501]”, for which, in series [2], the “Avg % KD qPCR” value amounted to 87% and the “Absolute Difference from SEQ1 (relative knockdown)” value was 22. Moreover, the “dose response of Cxn43 knockdown, qPCR” value in series [2] (setting [8]) was “exhibited a dose response”. Also, the “Avg % KD WB” value in series [3] stood at 82%.

“GCTGGCTCTGCTTGAAGGTC (chemistry not given here) [SEQ 5/133705]”: in series [2], the “Avg % KD qPCR” value came out at 84% and the “Absolute Difference from SEQ1 (relative knockdown)” value is 19. In addition, the “Avg % KD WB” value in series [3] worked out at 75%.

In the case of “TCTCCCCAGGCTGACTCAAC (chemistry not given here) [SEQ10/37503]”, in series [2], the “Avg % KD qPCR” value is given as 77% and the “Absolute Difference from SEQ1 (relative knockdown)” value is reported as 12. Also, in series [3], the “Avg % KD WB” value was 75%.

Regarding “GTAATTGCGGCAAGAAGAATTGTTTCTGTC (chemistry not given here) [SEQ1]”, the “knockdown effect on Cxn43, qPCR” value in series [2] (unmodified sequences (no phosphorthioate linkages), 4 hr, all concentrations (200-600 nM)) is no more than 10%.

As for “GAAGCGCACATGAGAGATTG (chemistry not given here) [SEQ11]”, in series [2], the “Absolute Difference from SEQ1 (relative knockdown)” value was 20.

As to “AsCsCsCsAsTsGsTsTsGsCsCsTsGsGsGsCsAsCsC (ACCCATGTTGCCTGGGCACC; chemistry not fully specified) [SEQ4-PTO]”, in series [1] (setting [6]), the “% transfected, M2” value was 9%; the “% transfected, M3” value was found to be 44%; the “% transfected, M4” value was determined as 48%; the “% transfected, Total” value is on record as 100%. Also, in series [1] (setting [7]), the “% transfected, M2” value stood at 9%; the “% transfected, M3” value was determined as 44%; the “% transfected, M4” value is 47%; the “% transfected, Total” value is listed as 99%.

Avastin: VEGF antagonist antibody: the “incidence of new geographic atrophy” value in series [4] is 19.5%.

For the compound “AGGCTGTGCATGGGAGTTAG (chemistry not given here) [SEQ7/1233]”, in series [2], the “Avg % KD qPCR” value is recorded as 82% and the “Absolute Difference from SEQ1 (relative knockdown)” value is given as 17. Besides, the “Avg % KD WB” value in series [3] is on record as 75%.

Turning to “ACCCATGTTGCCTGGGCACC (chemistry not fully specified) [SEQ4-Q]”, in series [1] (setting [6]), the “% transfected, M2” value is 64%; the “% transfected, M3” value is given as 34%; the “% transfected, M4” value was 1%; the “% transfected, Total” value is 99%. In addition, in series [1] (setting [7]), the “% transfected, M2” value is reported as 55%; the “% transfected, M3” value was 41%; the “% transfected, M4” value is given as 2%; the “% transfected, Total” value came out at 99%.

Consider “GsTsAsAsTsTsGsCsGsGsCsAsAsGsAsAsGsAsAsTsTsGsTsTsTsCsTsGsT (GTAATTGCGGCAAGAAGAATTGTTTCTGT; chemistry not fully specified) [SEQ1-PTO]”, for which, in series [1] (setting [6]), the “% transfected, M2” value amounted to 26%; the “% transfected, M3” value was 63%; the “% transfected, M4” value stood at 11%; the “% transfected, Total” value is given as 100%. In addition, in series [1] (setting [7]), the “% transfected, M2” value worked out at 15%; the “% transfected, M3” value turned out to be 49%; the “% transfected, M4” value turned out to be 35%; the “% transfected, Total” value is 100%.

Consider “CAGAAGCGCACATGAGAGAT (chemistry not given here) [SEQ8/47001]”, for which, in series [2], the “Avg % KD qPCR” value is 81% and the “Absolute Difference from SEQ1 (relative knockdown)” value is on record as 15. In addition, the “Avg % KD WB” value in series [3] is 75%.

Consider “ATATGATCTGCAGGACCCAG (chemistry not given here) [SEQ9/50506]”, for which, in series [2], the “Avg % KD qPCR” value came out at 79% and the “Absolute Difference from SEQ1 (relative knockdown)” value is listed as 14. The “Avg % KD WB” value in series [3] was determined as 73%.

On to `[Cl][La]([Cl])[Cl]` [LaCl3], for which the Connexin43 hemichannel activity result in series [5] was “virtually complete hemichannel block”.

On to Lucentis: VEGF antagonist antibody, for which the new geographic atrophy in series [4] (treated as needed) is on record as 16%. The “incidence of new geographic atrophy” value in series [4] was 29.4%.

Regarding “CGCTGGTCCACAATGGCTAG (chemistry not given here) [SEQ6/133705]”, in series [2], the “Avg % KD qPCR” value was 83% and the “Absolute Difference from SEQ1 (relative knockdown)” value is 18. For the same compound, the “dose response of Cxn43 knockdown, qPCR” value in series [2] (setting [8]) is reported as “exhibited a dose response”. In series [3], the “Avg % KD WB” value is on record as 75%.
